Measurements as given in US11447485B2, “Class of bifunctional compounds with quanternary ammonium salt structure” (Beijing Showby Pharmaceutical Co., Ltd., priority 2016, dated 2022).
Read-outs that look alike come from different tables or passages of the source.

Tests used:
[1] = Liver microsome metabolic stability in vitro (human); details: Human liver microsomes
Method: (§1) The area ratio of the 0 min sample was taken as 100%, and the remaining percentage of the compound after incubation at different times was obtained at each time point by comparison with the sample. With the natural logarithm of this percentage on the ordinate and time on the abscissa, a scatter plot was drawn to simulate a straight line with a negative slope of k. The parameters were calculated according to the formula.
(§2) Liver weight indicates the liver weight (g) per kilogram of body weight, and P450 indicates the amount (mg) of P450 enzyme per gram of liver.

[2] = Liver microsome metabolic stability in vitro (SD rat); details: SD rat liver microsomes
Method: as §1, §2

[3] = system: heart rate of Beagle dogs; experiment: Heart rate changes after iv administration in Beagle dogs; format: in vivo, Beagle dog
Method: Beagle dogs were randomly divided into two groups, half male and half female, and were intravenously injected (iv) with 7.5% ethanol solution of compounds of the invention and control compound. Each compound was set up in two dosage groups of 0.01 mg/kg and 0.10 mg/kg.

[4] = Liver microsome metabolic stability in vitro (Beagle dog); details: Beagle dog liver microsomes
Method: as §1, §2

[5] = system: guinea pig tracheal smooth muscle (MABA); experiment: MABA activity: relaxation of CCh pre-constricted guinea pig isolated trachea; details: Cavia porcellus; CCh 3×10^−6 mol/L
Method: (1) The Constriction Effect of Tracheal Smooth Muscle of Guinea Pig Induced by the Example Compounds Antagonizing Carbachol (CCh)
(§3) Preparation of an isolated tracheal smooth muscle specimen of a guinea pig: same as Experiment Example 1.
Administration Method: After the trachea flake were stabilized, carbachol with a final concentration of 3×10^−6 mol/L was added, and administration was started when the pressure value of the trachea flake was increased to a stable platform. The experiments were divided into blank group and each test sample administration group. DMSO solution prepared from K—H solution and 50 μl of each test sample solution were added to each group respectively. The test sample administration group was added with 10^−9, 0.3×10^−8, 10^−8, 0.3×10^−7, 10^−7, 0.3×10^−6 and 10^−6 mol/L of test compound and control substance at cumulative concentration. The blank group was added with corresponding diluted DMSO solution. Medlab was used to record the relaxation degree of smooth muscle of the trachea flake. Finally, isoproterenol with a final concentration of 10^−5 mol/L was added as 100% relaxation.

[6] = system: β2 receptor in guinea pig tracheal smooth muscle; experiment: BA activity: guinea pig isolated trachea pre-treated with histamine; details: Cavia porcellus
Method: (3) The Antagonism of the Example Compounds on β2 Receptor in Guinea Pig Tracheal Smooth Muscle
as §3
Administration Method: After the trachea flake was stabilized, histamine solution with a final concentration of 3×10^−5 mol/L was added for 10 min, carbachol with a final concentration of 3×10^−6 mol/L was added (observing β receptor antagonism), and administration was started when the pressure value of the trachea flake was increased to a stable platform. The experiments were divided into a blank group, a histamine+blank group, each test sample administration group and a histamine+each test sample administration group. DMSO solution prepared by K—H solution and 50 μl of test sample solution were added to each group of the blank group and each test sample administration group respectively. The histamine+blank group and histamine+each test sample administration group were added with 50 μl histamine solution for 10 min respectively, then added with DMSO solution prepared by K—H solution and 50 μl test sample solution. The test sample administration group was added with the compounds to be tested with final concentrations of 10^−9, 0.3×10^−8, 10^−8, 0.3×10^−7, 10^−7, 0.3×10^−6 and 10^−6 mol/L at cumulative concentration, and the blank group was added with corresponding diluted DMSO solution. The histamine+each test sample administration group was added with histamine for 10 min, and then added with the test compounds with final concentrations of 10^−9, 0.3×10^−8, 10^−8, 0.3×10^−7, 10^−7, 0.3×10^−6 and 10^−6 mol/L at cumulative concentration. After the histamine+blank group was added with histamine for 10 m, corresponding diluted DMSO solution was added. Medlab was used to record the relaxation degree of smooth muscle of the trachea flake. Finally theophylline with a final concentration of 2×10^−4 mol/L was added as 100% relaxation.

[7] = system: M receptor of guinea pig tracheal smooth muscle; experiment: MA activity: guinea pig isolated trachea, propranolol blocks β receptor, CCh constriction; details: Cavia porcellus; propranolol 10^−5 mol/L, CCh 3×10^−6 mol/L
Method: (2) Blocking Effect of Example Compounds on M Receptor of Guinea Pig Tracheal Smooth Muscle
as §3
Administration method: After trachea flake was stabilized, propranolol hydrochloride solution with a final concentration of 10^−5 mol/L was added to block β receptor for 10 min, carbachol with a final concentration of 3×10^−6 mol/L was added (observing M receptor antagonism of compound after propranolol blocks β receptor), and administration was started when the pressure value of the trachea flake was increased to a stable platform. The experiments were divided into a blank group, a propranolol+blank group, each test sample administration group and a propranolol+each test sample administration group. DMSO solution prepared by K—H solution and 50 μl of test sample solution were added to each group of the blank group and each test sample administration group respectively. The propranolol+blank group and propranolol+each test sample administration group were added with 50 μl propranolol solution for 10 min respectively, and then added with DMSO solution prepared from K—H solution and 50 μl of test sample solution. The test sample administration group was added with the compounds to be tested with final concentrations of 10^−9, 0.3×10^−8, 10^−8, 0.3×10^−7, 10^−7, 0.3×10^−6 and 10^−6 mol/L at cumulative concentration, and the blank group was added with corresponding diluted DMSO solution. The propranolol+each test sample administration group was added with propranolol for 10 min, and then added with the compounds to be tested with final concentrations of 10^−9, 0.3×10^−8, 10^−8, 0.3×10^−7, 10^−7, 0.3×10^−6 and 10^−6 mol/L at cumulative concentration. After the propranolol+blank group was added with propranolol for 10 min, corresponding diluted DMSO solution was added. Medlab was used to record the relaxation degree of tracheal smooth muscle, finally sodium nitroprusside with a final concentration of […] was added as 100% relaxation.

[8] = Lung homogenate stability in vitro (human); format: in vitro ADME; details: 8 h, 37° C.
[9] = Lung homogenate stability in vitro (dog); format: in vitro ADME, Beagle dog; details: 8 h, 37° C.
Method: The compounds of the invention were respectively incubated with the lung homogenate of Beagle dogs for 8 hours in a water bath at 37° C., and sample was analysed by LC-MS/MS when the reaction was terminated.

[10] = system: tracheal smooth muscle of guinea pig; experiment: Relaxation of CCh-induced constriction of isolated guinea pig tracheal smooth muscle (Experimental Example 1); details: in vitro; for Onset time (min) ± SD / Time for eliminating inhibition effect (min): CCh 3 × 10^−6 mol/L
Method: The upper end was connected with a muscle tension transducer, and the specimen was given a resting tension of 1.0 g. Muscle tension changes were recorded, nutrient solution was changed every 20 min, and the experiment was started after 60 min of equilibrium.
Administration Method: After the trachea flake were stabilized, 3×10^−6 mol/L CCh was added to the bath. […] Diastolic condition of the trachea flake was observed. If no response occurred (below the threshold concentration), the next dosage was continued to be added in the order. If any response occurred, the next dosage was added until its diastolic platform was reached. The above operation was repeated until the shrink curve reached the minimum. Finally, 10^−6 mol/L isoproterenol was added to establish maximum relaxation, and the curve was recorded.
Statistical Methods: Statistics was performed using the Sigma Stat statistical software package, the data was analyzed by using the variance analysis. Student-Newman-Keuls (SNK) test was used in comparison among multiple sample averages number. The statistical test level was α=0.05 (bilateral).

| SMILES | liver extraction rate (ERh) [1] | liver extraction rate (ERh) [2] | 0.5-4 h area increase under heart rate curve (%) ([3]; 0.01 mg/kg iv) | 0.5-4 h area increase under heart rate curve (%) ([3]; 0.10 mg/kg iv) | liver extraction rate (ERh) [4] | EC50 [5] | EC50 ([6]; read-out: BA (EC50, nM)) | EC50 [7] | Residual rate after incubation of human lung homogenate (%) [8] | Residual rate after incubation of dog lung homogenate (%) [9] | EC50 ([6]; histamine 3×10^−5 mol/L, read-out: BA (EC50)) | Onset time (min) ± SD [10] | Time for eliminating inhibition effect (min) [10] | Onset time (min) ± SD ([10]; listed as Tiotropium bromine) | Time for eliminating inhibition effect (min) ([10]; listed as Tiotropium bromine) | EC50 ([10]; Cavia porcellus, constriction induced by CCh 3 × 10^−6 mol/L, read-out: EC50 (μM) ± SD) |
| --- | --- | --- | --- | --- | --- | --- | --- | --- | --- | --- | --- | --- | --- | --- | --- | --- |
| C[N+]1(C)CCC(OC(=O)Nc2cc(CCC(=O)Nc3ccc(CNC[C@H](O)c4ccc(O)c5[nH]c(=O)ccc45)cc3)ccc2-c2ccccc2)CC1.O=C([O-])C(F)(F)F [4-({[5-(2-{[4-({[(2R)-2-hydroxy-2-(8-hydroxy-2-oxo-1,2-dihydroquinolin-5-yl)ethyl]amino}methyl)phenyl]carbamoyl}ethyl)-2-phenylphenyl]carbamoyl}oxy)-1,1-dimethylpiperidin-1-onium trifluoroacetate, reference compound] | 0.36 | 0.48 | 35.2% | 109% | 0.43 |  |  |  |  |  |  |  |  |  |  |  |
| O=c1ccc2c([C@@H](O)CNCCCCCCCCCN3CCC(Cn4cnc([C@](O)(c5ccccc5)C5CCCCC5)n4)CC3)ccc(O)c2[nH]1 [5-[(1R)-2-({9-[4-({3-[(R)-cyclohexyl(hydroxy)benzyl)-1H-1,2,4-triazol-1-yl}methyl)piperidin-1-yl]nonyl}amino)-1-hydroxyethyl]-8-hydroxyquinolin-2(1H)-one, reference compound] | 0.62 | 0.42 | 69.7% | 152% | 0.36 |  |  |  |  |  |  |  |  |  |  |  |
| OCc1cc([C@@H](O)CNCCCCCCCCC[N+]23CCC(CC2)[C@@H](OC[C@@](O)(c2ccccc2)C2CCCC2)C3)ccc1O.[Br-] [Compound 7] | 0.94 | 0.97 | −0.5% | 0% | 0.98 | 0.0723 ± 0.0146 µM | 162 ± 9.8 nM | 0.29 ± 0.0123 µM | 93% | 95% |  |  |  |  |  |  |
| O=c1ccc2c([C@@H](O)CNCCCCCCCCC[N+]34CCC(CC3)[C@@H](OC[C@@](O)(c3ccccc3)C3CCCC3)C4)ccc(O)c2[nH]1.[Br-] [Compound 12] | 0.96 | 0.98 | 1.2% | 3.6% | 0.93 | 0.0058 ± 0.0014 µM | 13.8 ± 2.3 nM | 0.0201 ± 0.0028 µM | 98% | 91% |  |  |  |  |  |  |
| CC(Cc1ccc(OCC[N+]23CCC(CC2)[C@@H](OC[C@@](O)(c2ccccc2)C2CCCC2)C3)cc1)NC[C@H](O)c1ccc(O)c(NC=O)c1 (stereo partly drawn) [Compound 61, (R)-(−)-3-[(R)-2-hydroxy-2-cyclopentyl-2-phenyl]ethoxy]-1-{2-[4-(2-{(R)-[2-hydroxy-2-(3-formamido-4-hydroxy)phenyl]ethylamino}propyl)phenoxy]ethyl}-1-azabicyclo[2,2,2]octylonium bromide] | 0.98 | 0.95 | 0% | 2.1% | 0.97 | 0.005 ± 0.0011 µM | 12.9 ± 1.8 nM | 0.0206 ± 0.0018 µM | 92% | 89% |  |  |  |  |  |  |
| CC(NC[C@H](O)c1ccc(O)c(CO)c1)c1ccc(OCCC[N+]23CCC(CC2)[C@@H](OC[C@@](O)(c2ccccc2)C2CCCC2)C3)cc1 (stereo partly shown) [Compound 69] | 0.95 | 0.96 | −5.1% | −3.4% | 0.94 | 0.0076 ± 0.0018 µM | 18.7 ± 2.8 nM | 0.0277 ± 0.0034 µM | 94% | 90% |  |  |  |  |  |  |
| CC(Cc1ccc(OCCC[N+]23CCC(CC2)[C@@H](OC[C@@](O)(c2ccccc2)C2CCCC2)C3)cc1)NC[C@H](O)c1ccc(O)c2[nH]c(=O)ccc12.[Br-] (stereo partly shown) [Compound 80] | 0.92 | 0.92 | 4% | −5.1% | 0.91 | 0.0033 ± 0.0009 µM | 9.9 ± 1.7 nM | 0.0133 ± 0.0012 µM | 92% | 92% |  |  |  |  |  |  |
| OCc1cc(C(O)CNCCCCCCOCCCCc2ccccc2)ccc1O (stereo not shown) [Salmeterol, reference compound] |  |  |  |  |  |  |  |  |  |  | 93.8 ± 6.8 nM |  |  |  |  |  |
| C[N+]1(C)[C@@H]2C[C@@H](OC(=O)C(O)(c3cccs3)c3cccs3)C[C@H]1[C@@H]1O[C@@H]12 [Tiotropium Bromide, tiotropium bromide, reference compound] |  |  |  |  |  |  |  | 0.0122 ± 0.0008 µM |  |  |  | slow | long duration of action | 30.37 ± 0.50 min | more than 300 min | 0.0142 ± 0.0022 µM |
